Assay results from the supplement of paper PMC10307832.

Key:
Experiment in all cases: relative viability (nuclei count vs DMSO), 5 days (fraction); higher = more cells survive
Bortezomib + Linsitinib = compound: CC(C)C[C@H](NC(=O)[C@H](Cc1ccccc1)NC(=O)c1cnccn1)B(O)O [Bortezomib] + C[C@]1(O)C[C@@H](c2nc(-c3ccc4ccc(-c5ccccc5)nc4c3)c3c(N)nccn32)C1 [Linsitinib] (partner 1 µM)
Procedure, shortened: (§1)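 Lung cancer cell lines were seeded in 1536-well plates and dosed by pin tool the next day, with either a single drug or a fixed anchor-drug dose combined with five library-drug doses (not always all listed) spaced in √10 steps. Five days later, one step fixed the cells and stained their nuclei (final 0.05% Triton X-100, 1% formaldehyde, 1 ug/ml Hoechst), and nuclei were counted on 4× images. Relative viability is the nuclei count in treated wells divided by the count in vehicle wells, and each value is the median of duplicate plates.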

Bortezomib + Pictilisib = compound: CC(C)C[C@H](NC(=O)[C@H](Cc1ccccc1)NC(=O)c1cnccn1)B(O)O [Bortezomib] + CS(=O)(=O)N1CCN(Cc2cc3nc(-c4cccc5[nH]ncc45)nc(N4CCOCC4)c3s2)CC1 [Pictilisib] (partner 1 µM)
Procedure, shortened: as §1

Obatoclax + Foretinib = compound: COC1=CC(c2cc3ccccc3[nH]2)=N/C1=C\c1[nH]c(C)cc1C [Obatoclax] + COc1cc2c(Oc3ccc(NC(=O)C4(C(=O)Nc5ccc(F)cc5)CC4)cc3F)ccnc2cc1OCCCN1CCOCC1 [Foretinib] (partner 0.25 µM)
Procedure, shortened: as §1

Obatoclax + Alpelisib = compound: COC1=CC(c2cc3ccccc3[nH]2)=N/C1=C\c1[nH]c(C)cc1C [Obatoclax] + Cc1nc(NC(=O)N2CCC[C@H]2C(N)=O)sc1-c1ccnc(C(C)(C)C(F)(F)F)c1 [Alpelisib] (partner 2 µM)
Procedure, shortened: as §1

Cell Line	relative viability (Bortezomib + Linsitinib; first compound 0.0002 µM)	relative viability (Bortezomib + Linsitinib; first compound 0.000632 µM)	relative viability (Bortezomib + Linsitinib; first compound 0.002 µM)	relative viability (Bortezomib + Linsitinib; first compound 0.006325 µM)	relative viability (Bortezomib + Linsitinib; first compound 0.02 µM)	relative viability (Bortezomib + Pictilisib; first compound 0.0002 µM)	relative viability (Bortezomib + Pictilisib; first compound 0.000632 µM)	relative viability (Bortezomib + Pictilisib; first compound 0.002 µM)	relative viability (Bortezomib + Pictilisib; first compound 0.006325 µM)	relative viability (Bortezomib + Pictilisib; first compound 0.02 µM)	relative viability (Obatoclax + Foretinib; first compound 0.01 µM)	relative viability (Obatoclax + Foretinib; first compound 0.03162 µM)	relative viability (Obatoclax + Foretinib; first compound 0.1 µM)	relative viability (Obatoclax + Foretinib; first compound 0.3162 µM)	relative viability (Obatoclax + Foretinib; first compound 1 µM)	relative viability (Obatoclax + Alpelisib; first compound 0.01 µM)	relative viability (Obatoclax + Alpelisib; first compound 0.03162 µM)	relative viability (Obatoclax + Alpelisib; first compound 0.1 µM)	relative viability (Obatoclax + Alpelisib; first compound 0.3162 µM)	relative viability (Obatoclax + Alpelisib; first compound 1 µM)
NCI-H2023	0.68	0.723	0.711	0.102	0.0845	0.235	0.215	0.286	0.162	0.0837	0.944	0.841	0.804	0.804	0.316	0.603	0.667	0.578	0.605	0.334
NCI-H2085	0.901	0.901	0.726	0.262	0.145	0.404	0.465	0.447	0.39	0.218	0.761	0.998	1.14	0.795	0.531	0.89	0.925	0.98	0.57	0.29
NCI-H2087	0.944	1.15	0.764	0.11	0.215	0.77	0.74	0.7	0.159	0.0891	1.21	1.05	1.1	0.324	0.465	0.738	1.18	0.953	0.854	0.354
NCI-H2126	0.74	0.711	0.68	0.738	0.374	0.462	0.497	0.535	0.465	0.483	1.11	1.1	1.12	1.16	1.13	0.779	0.752	0.743	0.769	0.714
NCI-H2228	0.671	0.717	0.506	0.157	0.133	0.373	0.418	0.355	0.109	0.115	0.851	0.867	0.861	0.759	0.511	0.662	0.601	0.629	0.436	0.27
NCI-H2347	0.93	0.92	0.848	0.29	0.325	0.803	0.587	0.564	0.318	0.0071	1.09	0.831	0.918	–	1.04	1.02	0.994	0.841	1.01	0.93
NCI-H2405	0.868	–	0.32	0.147	0.169	0.462	–	0.464	0.152	0.148	1.09	1.06	–	1.07	1.13	0.806	0.891	–	0.777	0.711
NCI-H3122	1.01	1.04	1.09	0.606	0.179	0.547	0.654	0.688	0.62	0.167	0.97	0.783	0.912	0.925	0.947	0.787	0.812	0.792	0.707	0.751
PC-3 [JPC-3]	0.989	0.929	0.87	0.916	0.186	0.795	0.762	0.804	0.281	0.26	1	1.03	1.01	1.01	0.916	0.968	1.01	0.999	0.975	1.1
PC-14	0.941	0.917	0.974	0.152	0.0932	0.685	0.726	0.632	0.0319	0.0362	0.858	0.945	0.917	0.872	0.661	0.875	0.92	0.892	0.775	0.632
RERF-LC-KJ	0.859	–	0.908	0.366	0.203	0.573	0.528	0.523	0.171	0.203	0.823	0.883	0.862	0.792	0.844	0.754	0.811	0.805	0.803	0.775
SK-LU-1	0.986	1.04	1.42	0.174	0.159	0.521	0.528	0.503	0.166	0.14	0.775	0.855	0.804	0.409	0.357	0.825	0.984	0.779	0.355	0.29
SK-MES-1	1.08	1.06	1.1	0.54	0.189	0.337	0.303	0.347	0.148	0.143	0.935	1.03	0.831	0.833	0.867	0.828	0.785	1.01	0.824	0.645
SW 1573	0.663	0.775	0.766	0.144	0.0774	0.516	0.496	0.399	0.0724	0.0556	0.866	0.732	0.816	0.81	0.6	0.789	0.701	0.946	0.672	0.556
UMC-11	0.937	0.974	0.936	0.375	0.176	0.703	0.751	0.741	0.393	0.138	1.07	1.08	1.05	0.716	0.382	0.954	0.892	1.03	0.584	0.442
